This note sets out measurements from US4536335A, “Carbapenem antibiotics” (Bristol-Myers Company, priority 1983, dated 1985).

Data set [1] has as its system S. aureus A-9537. Put plainly: In vitro MIC, tube dilution. It is filed as cell-based. The conditions noted are these: Staphylococcus aureus, overnight incubation at 37° C., additional data table.
For data set [2], the system named is S. faecalis A20688. Put plainly: In vitro MIC, tube dilution. It is filed as cell-based. The conditions noted are these: Enterococcus faecalis, A20688, tube dilution, Nutrient Broth, overnight incubation at 37° C.; additional data table.
Data set [3] relates to P. aeruginosa A-9843A. Description: In vitro MIC, tube dilution. Format: cell-based. The conditions noted are these: Pseudomonas aeruginosa, A9843A, Nutrient Broth, overnight incubation at 37° C., additional data table.
Data set [4] has as its system S. marcescens A20019. Put plainly: In vitro MIC, tube dilution. To be noted: Serratia marcescens, A20019, tube dilution, Nutrient Broth, overnight incubation at 37° C.; additional data table. It is filed as cell-based.
The test system of data set [5] is P. mirabilis A-9900. Put plainly: In vitro MIC, tube dilution. The conditions noted are these: Proteus mirabilis, A9900, tube dilution, Nutrient Broth, overnight incubation at 37° C.; additional data table. It is filed as cell-based.
For data set [6], the system named is E. cloacae A-9656. Put plainly: In vitro MIC, tube dilution. Format: cell-based. To be noted: Enterobacter cloacae, A9656, tube dilution, Nutrient Broth, overnight incubation at 37° C.; additional data table.
Data set [7] concerns P. vulgaris A21559. Put plainly: In vitro MIC, tube dilution. Format: cell-based. To be noted: Proteus vulgaris, A21559, tube dilution, Nutrient Broth, overnight incubation at 37° C.; additional data table.
In data set [8] the test system is P. aeruginosa A-9843a. Description: Protective effect in the intramuscular treatment of infected mice (PD50). It is filed as in vivo. The conditions noted are these: Pseudomonas aeruginosa, A9843A, im, read-out: PD50/treatment, P. aeruginosa A9843A. How it is done:
The PD50 (dose in mg/kg required to give protection to 50% of the infected mice) is indicated.
Treatment Schedule: Mice were treated i.m. with drugs 0 and 2 hours post-infection; 5 mice per dose were used for each test
*For compound of Ex. 2, mice were infected i.p. with 2 × 10^9
compounds of Ex. 4 and 5, mice were infected i.p. with ~9 ×
were treated i.m. with drugs 0 and 2 h postinfection.

The subject of data set [9] is S. pyogenes A-9604. Put plainly: In vitro MIC, tube dilution. It is filed as cell-based. The conditions noted are these: Streptococcus pyogenes, A9604, tube dilution, Nutrient Broth, overnight incubation at 37° C.; additional data table.
The subject of data set [10] is S. aureus A-9606 (Pen-res.). Description: In vitro MIC, tube dilution. To be noted: Staphylococcus aureus, Nutrient Broth, overnight incubation at 37° C., additional data table, read-out: MIC S. aureus (Pen-res.) A-9606. It is filed as cell-based.
Data set [11] has as its system P. aeruginosa A21213. Put plainly: In vitro MIC, tube dilution. The conditions noted are these: Pseudomonas aeruginosa, A21213, tube dilution, Nutrient Broth, overnight incubation at 37° C.; additional data table. It is filed as cell-based.
Data set [12] is described as follows: Blood levels in mice after intramuscular administration. Format: in vivo. The conditions noted are these: mouse, blood, im, 20 mg/kg, intramuscular dose of 20 mg/kg. An excerpt:
Compounds were solubilized in 0.1 M phosphate buffer pH 7. Values are fro
a single test; 4 mice used per compound.
*t1/2 refers to halflife in minutes
**AUC refers to the area under the blood concentrationtime curve
(§1) Also shown is the urinary recovery in the mice.
Compounds were solubilized in 0.1 M phosphate buffer, pH 7.
Values based on a single test; 4 mice per compound.
*T1/2 refers to halflife in minutes

In data set [13] the test system is K. pneumoniae A20468. Description: In vitro MIC, tube dilution. It is filed as cell-based. The conditions noted are these: Klebsiella pneumoniae, A20468, tube dilution, Nutrient Broth, overnight incubation at 37° C.; additional data table.
Data set [14] deals with S. pneumoniae A-9585. Description: In vitro MIC, tube dilution. Format: cell-based. To be noted: Streptococcus pneumoniae, A9585, Nutrient Broth, overnight incubation at 37° C., additional data table.
Data set [15] in a line: Urinary recovery after intramuscular administration to mice. It is filed as in vivo. To be noted: mouse, urine, im, 20 mg/kg, intramuscular dose of 20 mg/kg, 0-6 hour collection, read-out: Urine Recovery. How it is done: Compounds were solubilized in 0.1 M phosphate buffer pH 7. Values are from a single test; 4 mice per compound.
as §1
***Recovery based on 0-6 hour collection

The test system of data set [16] is E. coli A20341-1. Put plainly: In vitro MIC, tube dilution. The conditions noted are these: Escherichia coli, A203411, tube dilution, Nutrient Broth, overnight incubation at 37° C.; additional data table. It is filed as cell-based.
In data set [17] the test system is P. rettgeri A22424. Put plainly: In vitro MIC, tube dilution. The conditions noted are these: Providencia rettgeri, A22424, tube dilution, Nutrient Broth, overnight incubation at 37° C.; additional data table. Format: cell-based.

Converted amounts (≈) assume the structure as drawn. Like-named read-outs stand apart in the source and are kept apart here.

Regarding `C[C@@H](O)[C@H]1C(=O)N2C(C(=O)[O-])=C(SCC[N+]3(C)CCN(C)CC3)C[C@H]12` [Example 4, (5R,6S)3-[2-(1,4-dimethyl-1-piperazinium)-ethylthio]-6-[1-(R)-hydroxyethyl]-7-oxo-1-azabicyclo-[3.2.0]hept-2-ene-2-carboxylate], the MIC in [1] (A9537, 50% serum, tube dilution, read-out: MIC S. aureus-50% serum A-9537) was determined as 0.06 µg/mL (≈ 0.162 µM); in data set [1] (A9537, tube dilution, Nutrient Broth, read-out: MIC S. aureus A-9537), 0.03 µg/mL (≈ 0.0812 µM); in data set [2], 2 µg/mL (≈ 5.41 µM); in data set [3], 16 µg/mL (≈ 43.3 µM); in data set [4] it was 0.25 µg/mL (≈ 0.677 µM); in data set [5], 0.25 µg/mL (≈ 0.677 µM). Besides, the MIC is 2 µg/mL (≈ 5.41 µM) in data set [6]; 0.25 µg/mL (≈ 0.677 µM) in data set [7]; 4 ng/mL (≈ 0.0108 µM) in data set [9]; 0.06 µg/mL (≈ 0.162 µM) in [10]; 1 µg/mL (≈ 2.71 µM) in data set [11]; 0.5 µg/mL (≈ 1.35 µM) in data set [13]. The minimum inhibitory concentration (MIC) in [14] worked out at 4 ng/mL (≈ 0.0108 µM); in [16], 0.13 µg/mL (≈ 0.352 µM); in [17] it was 1 µg/mL (≈ 2.71 µM). Moreover, the ED50 in data set [8] turned out to be 2.7 mg/kg. Besides, the highest level in data set [12] (Cmax) was 17300 ng/mL. The AUC in [12] (read-out: Blood AUC) was found to be 7600 ng·h/mL. Moreover, the half-life in [12] (read-out: Blood T1/2) turned out to be 12 min. The dose excreted at 6 h in data set [15] was 33 ± 11%.
